The subject of data set [1] is monocyte/macrophages. The data set can be described thus: Toxicity on replicate uninfected macrophage plates (MTS cell viability). It counts as cell-based, human. As to conditions: Southern Research Institute tests, TABLES 7-9. On the procedure:
(§1) Evaluation of Prodrug Anti-HIV-1 Potency in Macrophage Assay. The anti HIV-1 evaluation of the carriers and their conjugates was performed in 6-day old monocyte/macrophages at Southern Research Institute, Frederick, Md. Briefly, peripheral blood monocytes were isolated from normal HIV-1 negative donors by plastic adherence following ficoll hypaque purification of the buffy coats. The monocytes were then cultured for 6 days to a macrophage-like phenotype. The test compounds were serially diluted and added to the cultures followed by the addition of a pretitered amount of the Ba-L strain of HIV-1 obtained from the NIAID AIDS Research and Reference Reagent Repository. Cultures were washed by media removal 24 hours post infection, fresh compound added and the cultures continued for an additional 6 days. HIV p24 antigen content to assess virus replication was measured by p24 ELISA assay. AZT and ddc were used as positive control compounds and run in parallel with each determination. […] At assay termination, the assay plates were stained with the tetrazolium based dye MTS to determine cell viability and quantify compound toxicity. Using a computer program at Southern Research Institute, IC50 (50% inhibition of virus replication), TC50 (50% cytotoxicity) and a therapeutic index (TI, […]) were obtained.

Assay in data set [2]: as above
It counts as cell-based, human. The note with it: human, uninfected macrophages, MTS, read-out: TC50 (50% cytotoxicity). As for the experimental part: as §1

The subject of data set [3] is Ba-L strain of HIV-1. Put plainly: Anti-HIV-1 potency in macrophage assay (p24 ELISA). It counts as cell-based, HIV-1 in human monocyte/macrophages. As to conditions: for IC50: Human immunodeficiency virus 1, BAL, Macrophage. As for the experimental part: as §1
A general note: An ELISA detects its analyte on a solid surface through an enzyme-linked reagent.

Data set [4] concerns Friends Leukemia Virus (FLV). Put plainly: Anti-retroviral potency in a murine model (FLV-infected mice, spleen and body weight). It counts as in vivo, Swiss mice. The note with it: for Average Final Weight / Average Weight Change / Average Spleen Weight: FLV-infected four-week old Swiss mice, 300 nanomoles on days 5-9, sacrificed day 12; for Average Spleen Weight: p < 0.01 for MTLJ-1-Foscarnet; for weight gain: FLV-infected mice, treated group. On the procedure: (§2) Evaluation Foscarnet Prodrug Anti-Retroviral Potency in a Murine Model. The effect of prodrug MTLJ-1-Foscarnet on four-week old Swiss mice infected with Friends Leukemia Virus (FLV) was tested by the Luminide Pharmaceutical Corporation. The mice were infected with FLV by an IP injection with 0.5 ml viral solution prepared by resuspending F4-6 cells (1×10^6 cells/ml) in fresh media and harvesting that media 24 hr later and filtering through a […] filter. The Foscarnet Group received 300 nanomoles of Foscarnet on days 5-9. The Carrier Group received 300 nanomoles of carrier on days 5-9. The MTLJ-1-Foscarnet Group received 300 nanomoles of MTLJ-1-Foscarnet on days 5-9. All mice were sacrificed on day 12. The spleens were removed and weighed. The toxicity of the carrier MTLJ-1 was also evaluated by the determination of its LD50.

Data set [5] is described as follows: Acute toxicity, determination of LD50. It counts as in vivo. On the procedure:
as §2

Where [6] appears, read: TABLE 9 (6a carrier and Foscarnet prodrug).
[7] abbreviates: TABLE 8 (6a carrier and ddc prodrug, Southern Research Institute), HIV-1 Ba-L, human macrophages, p24 antigen, read-out: IC50 (50% inhibition of virus replication).
[8] abbreviates: TABLE 9 (6a carrier and Foscarnet prodrug, Southern Research Institute), HIV-1 Ba-L, human macrophages, p24 antigen, read-out: IC50 (50% inhibition of virus replication).
Where [9] appears, read: TABLE 10, Southern Research Institute under NIH contract, HIV-1 in human macrophages, read-out: IC50.
Where [10] appears, read: TABLE 10, Southern Research Institute under NIH contract.
Where [11] appears, read: TABLE 7 (negative control carrier test).
[12] abbreviates: TABLE 7 (negative control carrier test, Southern Research Institute), HIV-1 Ba-L, human macrophages, p24 antigen, read-out: IC50 (50% inhibition of virus replication).

Each structure is given as a SMILES string. Where two headings read alike, the source gives them in different places. Marks after values point to notes of the source that are not given here.

As for `CCN(c1ccc(/C(=C/C=C/C(=C2C=CC(=[N+](CC)c3ccc4c(=O)[nH][nH]c(=O)c4c3)C=C2)c2ccc(N(C)C)cc2)c2ccc(N(C)C)cc2)cc1)c1ccc2c(=O)[nH][nH]c(=O)c2c1` [6a], the “Toxicity in macrophage assay (in words)” value in data set [1] is given as “nontoxic”. The CC50 at 7 days was more than 100 µM in data set [2] (TABLE 8 (6a carrier and ddc prodrug)); more than 104 µM in data set [2] (setting [6]). Moreover, the values for the IC50 in data set [3] (setting [7]), in data set [3] (setting [8]) and in data set [3] (setting [9]) were more than 100 µM, 23.1 µM and 2.62 µM, respectively. For the same compound, the “TI (TC50/IC50)” value in data set [3] (setting [6]) is listed as more than 4.48; in data set [3] (setting [10]) it was more than 38.2.

Turning to `O=C([O-])P(=O)([O-])[O-].[Na+].[Na+].[Na+]` [Foscarnet, phosphonoformate, reference compound], the CC50 at 7 days is more than 10 µM in data set [2] (setting [11]) and more than 333 µM in data set [2] (setting [6]). For the same compound, the IC50 (in general, the midpoint of a concentration-inhibition curve) in data set [3] (setting [12]) amounted to 0.55 µM; in data set [3] (setting [8]) it was 1.83 µM. The “TI (TC50/IC50)” value in data set [3] (setting [11]) is given as more than 18; in data set [3] (setting [6]), more than 182.08. Moreover, the “Average Final Weight” value in data set [4] is 18.9 g. The “Average Weight Change” value in data set [4] is reported as “+1.5 g”. Moreover, the “Average Spleen Weight” value in data set [4] stood at 0.1727 g. The compound further had a weight gain in data set [4] of 1.5 grams.

Take `CCN(c1ccc(/C(=C/C=C/C(=C2C=CC(=[N+](CC)c3ccc4c(=O)[nH][nH]c(=O)c4c3)C=C2)c2ccccc2)c2ccccc2)cc1)c1ccc2c(=O)[nH][nH]c(=O)c2c1` [GZW1-98-2]: in data set [3] (setting [9]), the IC50 was 23.1 µM. In addition, the “TI (TC50/IC50)” value in data set [3] (setting [10]) is more than 4.3.

As to `CCN(c1ccc(/C(=C/C=C/C=C2C=CC(=[N+](C)C)C=C2)c2ccc(N(C)C)cc2)cc1)c1ccc2c(=O)[nH][nH]c(=O)c2c1` [GZW2-33-1], the IC50 in data set [3] (setting [9]) was found to be 18.9 µM. Further, the “TI (TC50/IC50)” value in data set [3] (setting [10]) is given as more than 5.3.

With `CCCC(NCCN(CC)c1ccc(/C(=C/C=C/C(OP(=O)(O)C(=O)O)(c2ccc(N(C)C)cc2)c2ccc(N(CC)CCNC(CCC)N(CC)c3ccc4c(=O)[nH][nH]c(=O)c4c3)cc2)c2ccc(N(C)C)cc2)cc1)N(CC)c1ccc2c(=O)[nH][nH]c(=O)c2c1` (stereo not drawn) [MTLJ-1-Foscarnet], the “Toxicity in vivo (in words)” value in data set [5] (from LD50 and weight gain) is listed as “nontoxic”. Besides, the LD50 (in general, the dose at which mortality reaches 50%) in data set [5] (mouse, in vivo, ip) was more than 1250 mg/kg. In addition, the “Spleen weights compared with control groups (in words)” value in data set [4] (FLV-infected Swiss mice) is “the same as those of the No Virus, No Treatment Group”. Further, the “Suppression of FLV infection in mice (in words)” value in data set [4] (FLV-infected Swiss mice, significance level of 0.01, Students T test) was “highly effective”. Also, in data set [4], the “Average Final Weight” value stood at 22.4 g, the “Average Weight Change” value was “+2.5 g”, the “Average Spleen Weight” value is listed as 0.0914^a g and the weight gain was 2.5 grams.

Turning to `CCCCc1ccc(C(/C=C/C=C(\c2ccc(CCCC)cc2)c2ccc(OCCN(CC)c3ccc4c(=O)[nH][nH]c(=O)c4c3)cc2)=C2C=CC(=[O+]CCN(CC)c3ccc4c(=O)[nH][nH]c(=O)c4c3)C=C2)cc1` [YY99811-1], in data set [1], the “Toxicity in macrophage assay (in words)” value is recorded as “nontoxic”. The CC50 at 7 days in data set [2] (setting [11]) was more than 10 µM. In addition, the IC50 in data set [3] (setting [12]) is more than 10 µM.

With `Nc1ccn([C@H]2CC[C@@H](CO)O2)c(=O)n1` [ddc, dideoxycytidine, reference compound], in data set [3], the “TI (TC50/IC50)” value was >2,500. Further, the results for the IC50 in data set [3] (setting [7]) and in data set [3] (setting [9]) were 0.07 µM and 0.04 µM, respectively.

These data come from patent US20050080260A1, “Preparation of prodrugs for selective drug delivery” (priority 2003, published 2005).
